US11535632B2, “Solid forms of an S1P-receptor modulator” (ESCAPE Bio, Inc., priority 2019, dated 2022)

Experiments:
Type in all cases: physicochemical
[1] = Competitive slurries of Form B and C in process relevant solvents; settings: 72 hours, start Form B + C
Method: Determination of the relative stabilities of Form B and Form C was undertaken to identify which material was more thermodynamically stable in process relevant solvents. As a suspected solvate was isolated from experiments where DMAC was used as a solvent, only DMSO and acetic acid were determined to be appropriate process solvents. Combinations of these solvents with relevant antisolvents were therefore selected for the competitive slurry experiments.
Compound 1 (from Example 2) was dispensed into HPLC vials. To these, 1 ml of selected solvents was subsequently added to give a suspension. Materials were slurried for 72 hours at 90° C., 50° C. or 25° C. with 500 rpm stirring. Material was subsequently isolated by centrifugation and analyzed by XRPD.

[2] = Water activity study; settings: 4 days, start Form A + Form B
Method: About 15 mg of Form A and 15 mg of Form B were added to the saturated solutions of different water activities and equilibrated at 25° C. and 50° C. for 4 days, respectively. The resulting suspensions were filtered, and the solid parts (wet cake) were investigated by XRPD to determine the polymorph.
According to XRPD results, Form B was obtained in methanol/water with water activity (a.w.) ranging from 0.1 to 0.9 at 25° C., as shown in FIGS. 20A-20B. At 50° C., Form B was obtained in methanol/water with a.w. ≥0.2, whereas a mixture of Form A and Form B was obtained in a.w. […] The water activity of the binary solvent system was calculated based on UNIFAC method (UNIQUAC Functional-group Activity Coefficients).

[3] = Solubility and metastable zone width by Crystal 16; settings: for metastable zone width: 0.5° C./min
Method: A Crystal 16 crystallization system (Technobis, NL) was used to determine the solubility and metastable zone of the material as a function of temperature. Slurries of the API, in different overall concentrations, were prepared by adding a known amount of solid to a known amount of chilled solvent (between 0.5 and 1.5 ml) and stirred at 350 rpm using a magnetic bar. The saturation temperature was measured through cycles of heating and cooling from 20 to 90° C. at 0.5° C./min.
Upon increasing the temperature, the solid completely dissolved and the suspension became a clear solution such that the light transmission reached its maximum value. This temperature was assigned as the clear point, which was assumed to coincide with the saturation temperature. Then, by cooling the solution at a rate of 0.5° C./min, the temperature at which particles first formed was detected by a decrease in the light transmission. This was assigned as the cloud point. The points were fitted by a Van′t Hoff equation and the difference between the cloud and the clear points defined the metastable zone width (MSZW) of the system. The instrument control software was Crystallization Systems and the data were analyzed using Crystal Clear and Microsoft Excel.
The solubility of compound 1 (various masses) in DMAC and DMSO (1 ml) was analyzed on the Crystal 16 (between 25-90° C. for DMSO and 0-90° C. for DMAC). A heating/cooling rate of 0.5° C./min and a stirring rate of 300 rpm was used for all samples. The resulting turbidity/temperature plots were analyzed to obtain solubility curves and determine the metastable zone width. Any precipitated solids were isolated by filtration and analyzed by XRPD.

## O=C(O)[C@H]1C[C@@H](N2CCc3oc(-c4ccc(OCc5ccc(Cl)cc5)cc4)nc3C2)C1 [Compound 1, (1s,3s)-3-(2-(4-((4-chlorobenzyl)oxy)phenyl)-6,7-dihydrooxazolo[4,5-c]pyridin-5(4H)-yl)cyclobutane-1-carboxylic acid]
[1]; Acetic acid:H2O (1:1), 25° C.
  XRPD analysis after slurrying: Form B
[1]; Acetic acid:H2O (1:1), 50° C.
  XRPD analysis after slurrying: Form B
[1]; Acetic acid:H2O (1:1), 90° C.
  XRPD analysis after slurrying: Form B
[1]; Acetic acid:MeCN (1:3), 25° C.
  XRPD analysis after slurrying: Form B
[1]; Acetic acid:MeCN (1:3), 50° C.
  XRPD analysis after slurrying: Form B
[1]; Acetic acid:MeCN (1:3), 90° C.
  XRPD analysis after slurrying: Form B
[1]; DMSO, 25° C.
  XRPD analysis after slurrying: Form B
[1]; DMSO, 50° C.
  XRPD analysis after slurrying: Poorly crystalline
[1]; DMSO, 90° C.
  XRPD analysis after slurrying: poorly crystalline Form A
[1]; DMSO:H2O (1:1), 25° C.
  XRPD analysis after slurrying: Form B
[1]; DMSO:H2O (1:1), 50° C.
  XRPD analysis after slurrying: Form B
[1]; DMSO:H2O (1:1), 90° C.
  XRPD analysis after slurrying: Form B
[2]; Methanol/water (20:80, v/v) a.w. = 0.9, 25° C.
  XRPD of solid after equilibration: Form B
[2]; Methanol/water (20:80, v/v) a.w. = 0.9, 50° C.
  XRPD of solid after equilibration: Form B
[2]; Methanol/water (57:43, v/v) a.w. = 0.7, 25° C.
  XRPD of solid after equilibration: Form B
[2]; Methanol/water (57:43, v/v) a.w. = 0.7, 50° C.
  XRPD of solid after equilibration: Form B
[2]; Methanol/water (69:31, v/v) a.w. = 0.6, 25° C.
  XRPD of solid after equilibration: Form B
[2]; Methanol/water (69:31, v/v) a.w. = 0.6, 50° C.
  XRPD of solid after equilibration: Form B
[2]; Methanol/water (77:23, v/v) a.w. = 0.5, 25° C.
  XRPD of solid after equilibration: Form B
[2]; Methanol/water (77:23, v/v) a.w. = 0.5, 50° C.
  XRPD of solid after equilibration: Form B
[2]; Methanol/water (84:16, v/v) a.w. = 0.4, 25° C.
  XRPD of solid after equilibration: Form B
[2]; Methanol/water (84:16, v/v) a.w. = 0.4, 50° C.
  XRPD of solid after equilibration: Form B
[2]; Methanol/water (89:11, v/v) a.w. = 0.3, 25° C.
  XRPD of solid after equilibration: Form B
[2]; Methanol/water (89:11, v/v) a.w. = 0.3, 50° C.
  XRPD of solid after equilibration: Form B
[2]; Methanol/water (93:7, v/v) a.w. = 0.2, 25° C.
  XRPD of solid after equilibration: Form B
[2]; Methanol/water (93:7, v/v) a.w. = 0.2, 50° C.
  XRPD of solid after equilibration: Form B
[2]; Methanol/water (97:3, v/v) a.w. = 0.1, 25° C.
  XRPD of solid after equilibration: Form B
[2]; Methanol/water (97:3, v/v) a.w. = 0.1, 50° C.
  XRPD of solid after equilibration: Form A + B
[3]; DMAC, 0-90° C.
  metastable zone width: ca. 30 °C
[3]; DMSO, 25-90° C.
  metastable zone width: ca. 30 °C
[3]; neat acetic acid
  solubility: very high solubility
